One experiment deals with RPEMYC^H2B-GFP cells. The experiment can be described thus: Phenotypic screening assay (mitotic arrest, polyploidy). It is filed as cell-based. The settings on record: 1 nM to 30 μM, read-out: Min. Effective conc. for Polyploidy (≥5%). Put shortly:
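RPE cells expressing MYC and H2B-EGFP treated with compound at 1 nM–30 μM; mitotic index scored at 24 h and polyploidy (DNA content) at 48 h by automated imaging, with reads at 24, 48 or 72 h. Hits show transient mitotic arrest followed by polyploid accumulation.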
For the molecule `COC(=O)c1cc(Oc2ncnc3cc[nH]c23)cc(C(=O)OC)c1` [Compound 36, dimethyl 5-((5H-pyrrolo[3,2-d]pyrimidin-4-yl)oxy)isophthalate], the minimal effective concentration was 0.001 to 1 µM.
For `COC(=O)c1cc(OC)cc(Oc2ncnc3ccsc23)c1` [Compound 37, methyl 3-methoxy-5-(thieno[3,2-d]pyrimidin-4-yloxy)benzoate], the minimal effective concentration was 0.001 to 1 µM.

The same experiment, now with this note: 1 nM to 30 μM, read-out: Mitotic Arrest (≥5%).
Regarding `COC(=O)c1cc(Oc2ncnc3cc[nH]c23)cc(C(=O)OC)c1` [Compound 36, dimethyl 5-((5H-pyrrolo[3,2-d]pyrimidin-4-yl)oxy)isophthalate], the minimal effective concentration is 0.001 to 1 µM.
Still for that read-out and setting: under `COC(=O)c1cc(OC)cc(Oc2ncnc3ccsc23)c1` [Compound 37, methyl 3-methoxy-5-(thieno[3,2-d]pyrimidin-4-yloxy)benzoate] stands 0.001 to 1 µM.

Staying with this experiment, now noted: 1 nM to 30 μM, read-out: Proliferative arrest (>50%).
As to `COC(=O)c1cc(Oc2ncnc3cc[nH]c23)cc(C(=O)OC)c1` [Compound 36, dimethyl 5-((5H-pyrrolo[3,2-d]pyrimidin-4-yl)oxy)isophthalate], the IC50 was in the range of 1 to 1000 nM.
Still for that read-out and setting: under `COC(=O)c1cc(OC)cc(Oc2ncnc3ccsc23)c1` [Compound 37, methyl 3-methoxy-5-(thieno[3,2-d]pyrimidin-4-yloxy)benzoate] stands 1 to 1000 nM.

The next experiment concerns HCT116. The experiment can be described thus: MECP in cancer cell line. Conditions: Homo sapiens, HCT-116. It is filed as cell-based. In outline:
(§1)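 Potency reported in bins: A 1 nM-1.0 μM, B to 10.0 μM, C to 30.0 μM, D above 30.0 μM. Compounds (1 nM-30 μM) applied to cells in DMEM/5% FBS; imaging-based readout at 24-72 h of mitotic index (raised at 24 h) and polyploidy (48 h), marking cytokinetic failure.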
For `COC(=O)c1cc(Oc2ncnc3cc[nH]c23)cc(C(=O)OC)c1` [Compound 36, dimethyl 5-((5H-pyrrolo[3,2-d]pyrimidin-4-yl)oxy)isophthalate], the minimal effective concentration was in the range of 0.001 to 1 µM.
With `COC(=O)c1cc(OC)cc(Oc2ncnc3ccsc23)c1` [Compound 37, methyl 3-methoxy-5-(thieno[3,2-d]pyrimidin-4-yloxy)benzoate], the minimal effective concentration was 0.001 to 1 µM.

Another experiment deals with Hela. The experiment can be described thus: MECP in cancer cell line. The experiment is classed as cell-based. The settings on record: Homo sapiens. In outline:
as §1
`COC(=O)c1cc(Oc2ncnc3cc[nH]c23)cc(C(=O)OC)c1` [Compound 36, dimethyl 5-((5H-pyrrolo[3,2-d]pyrimidin-4-yl)oxy)isophthalate] had a minimal effective concentration of 0.001 to 1 µM.
The molecule `COC(=O)c1cc(OC)cc(Oc2ncnc3ccsc23)c1` [Compound 37, methyl 3-methoxy-5-(thieno[3,2-d]pyrimidin-4-yloxy)benzoate] displayed a minimal effective concentration of 0.001 to 1 µM.

The next experiment relates to MDA-MB-231. The experiment can be described thus: MECP in cancer cell line. It is filed as cell-based. Conditions: Homo sapiens. Put shortly: as §1
As for `COC(=O)c1cc(Oc2ncnc3cc[nH]c23)cc(C(=O)OC)c1` [Compound 36, dimethyl 5-((5H-pyrrolo[3,2-d]pyrimidin-4-yl)oxy)isophthalate], the minimal effective concentration fell in the range of 0.001 to 1 µM.
In the case of `COC(=O)c1cc(OC)cc(Oc2ncnc3ccsc23)c1` [Compound 37, methyl 3-methoxy-5-(thieno[3,2-d]pyrimidin-4-yloxy)benzoate], the minimal effective concentration is 0.001 to 1 µM.

Another experiment deals with NCI-H460. The experiment can be described thus: MECP in cancer cell line. It is filed as cell-based. Conditions: Homo sapiens. Put shortly: as §1
With `COC(=O)c1cc(Oc2ncnc3cc[nH]c23)cc(C(=O)OC)c1` [Compound 36, dimethyl 5-((5H-pyrrolo[3,2-d]pyrimidin-4-yl)oxy)isophthalate], the minimal effective concentration was in the range of 1 to 10 µM.
Same read-out and setting: next, `COC(=O)c1cc(OC)cc(Oc2ncnc3ccsc23)c1` [Compound 37, methyl 3-methoxy-5-(thieno[3,2-d]pyrimidin-4-yloxy)benzoate]: 1 to 10 µM.

The subject of the next experiment is NCI-H596. The experiment can be described thus: MECP in cancer cell line. The settings on record: Homo sapiens. It is filed as cell-based. Put shortly:
as §1
Regarding `COC(=O)c1cc(Oc2ncnc3cc[nH]c23)cc(C(=O)OC)c1` [Compound 36, dimethyl 5-((5H-pyrrolo[3,2-d]pyrimidin-4-yl)oxy)isophthalate], the minimal effective concentration is 0.001 to 1 µM.
Same read-out and setting: under `COC(=O)c1cc(OC)cc(Oc2ncnc3ccsc23)c1` [Compound 37, methyl 3-methoxy-5-(thieno[3,2-d]pyrimidin-4-yloxy)benzoate] stands 0.001 to 1 µM.

The test system of a further experiment is T2 HCC. The experiment can be described thus: MECP in cancer cell line. It is filed as cell-based. The settings on record: Mus musculus. Put shortly:
as §1
`COC(=O)c1cc(Oc2ncnc3cc[nH]c23)cc(C(=O)OC)c1` [Compound 36, dimethyl 5-((5H-pyrrolo[3,2-d]pyrimidin-4-yl)oxy)isophthalate] registered a minimal effective concentration of 0.001 to 1 µM.
`COC(=O)c1cc(OC)cc(Oc2ncnc3ccsc23)c1` [Compound 37, methyl 3-methoxy-5-(thieno[3,2-d]pyrimidin-4-yloxy)benzoate] gave a minimal effective concentration of 0.001 to 1 µM.

A further experiment has as its system NCI-H23. The experiment can be described thus: MECP in cancer cell line. Conditions: Homo sapiens. It is filed as cell-based. In outline: as §1
`COC(=O)c1cc(Oc2ncnc3cc[nH]c23)cc(C(=O)OC)c1` [Compound 36, dimethyl 5-((5H-pyrrolo[3,2-d]pyrimidin-4-yl)oxy)isophthalate] yielded a minimal effective concentration of 0.001 to 1 µM.
On to `COC(=O)c1cc(OC)cc(Oc2ncnc3ccsc23)c1` [Compound 37, methyl 3-methoxy-5-(thieno[3,2-d]pyrimidin-4-yloxy)benzoate], for which the minimal effective concentration fell in the range of 0.001 to 1 µM.

Another experiment relates to HCT116. The experiment can be described thus: MTT assay of cellular proliferation. The experiment is classed as cell-based. The settings on record: Homo sapiens, HCT-116, 50% inhibition of cellular proliferation. In outline: (§2)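 EC50 for 50% growth inhibition came from MTT formazan absorbance at 570 nm after 3–4 h dye incubation. Beforehand, cells grown to 20–30% confluence (15–24 h) in DMEM/5% FBS were treated with compound over 1 nM–30 μM.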
(In general: Tetrazolium assays rely on reduction of a dye to a coloured formazan, in cell work by metabolically active cells.)
What is called EC50 is the midpoint of the concentration-response curve. The low end stands for an effect from little substance, the high end for a need for much substance. Take `COC(=O)c1cc(Oc2ncnc3cc[nH]c23)cc(C(=O)OC)c1` [Compound 36, dimethyl 5-((5H-pyrrolo[3,2-d]pyrimidin-4-yl)oxy)isophthalate]: the EC50 was in the range of 1 to 1000 nM.
The molecule `COC(=O)c1cc(OC)cc(Oc2ncnc3ccsc23)c1` [Compound 37, methyl 3-methoxy-5-(thieno[3,2-d]pyrimidin-4-yloxy)benzoate] gave an EC50 of 1 to 1000 nM.

Another experiment concerns Hela. The experiment can be described thus: MTT assay of cellular proliferation. Conditions: Homo sapiens, 50% inhibition of cellular proliferation. The experiment is classed as cell-based. In outline: as §2
The molecule `COC(=O)c1cc(Oc2ncnc3cc[nH]c23)cc(C(=O)OC)c1` [Compound 36, dimethyl 5-((5H-pyrrolo[3,2-d]pyrimidin-4-yl)oxy)isophthalate] yielded an EC50 of 1 to 1000 nM.
`COC(=O)c1cc(OC)cc(Oc2ncnc3ccsc23)c1` [Compound 37, methyl 3-methoxy-5-(thieno[3,2-d]pyrimidin-4-yloxy)benzoate] showed an EC50 of 1 to 1000 nM.

The next experiment has as its system MDA-MB-231. The experiment can be described thus: MTT assay of cellular proliferation. The experiment is classed as cell-based. The settings on record: Homo sapiens; MDA-MB-231, MTT, 50% inhibition of cellular proliferation. Put shortly:
as §2
As for `COC(=O)c1cc(Oc2ncnc3cc[nH]c23)cc(C(=O)OC)c1` [Compound 36, dimethyl 5-((5H-pyrrolo[3,2-d]pyrimidin-4-yl)oxy)isophthalate], the EC50 was in the range of 1 to 1000 nM.
Molecule `COC(=O)c1cc(OC)cc(Oc2ncnc3ccsc23)c1` [Compound 37, methyl 3-methoxy-5-(thieno[3,2-d]pyrimidin-4-yloxy)benzoate] came in with an EC50 of 1 to 1000 nM.

The next experiment concerns NCI-H23. The experiment can be described thus: MTT assay of cellular proliferation. Conditions: Homo sapiens, 50% inhibition of cellular proliferation. It is filed as cell-based. In outline: as §2
For `COC(=O)c1cc(Oc2ncnc3cc[nH]c23)cc(C(=O)OC)c1` [Compound 36, dimethyl 5-((5H-pyrrolo[3,2-d]pyrimidin-4-yl)oxy)isophthalate], the EC50 lay in the range of 1 to 1000 nM.
In the case of `COC(=O)c1cc(OC)cc(Oc2ncnc3ccsc23)c1` [Compound 37, methyl 3-methoxy-5-(thieno[3,2-d]pyrimidin-4-yloxy)benzoate], the EC50 lay in the range of 1 to 1000 nM.

The next experiment concerns NCI-H460. The experiment can be described thus: MTT assay of cellular proliferation. The experiment is classed as cell-based. The settings on record: Homo sapiens, 50% inhibition of cellular proliferation. Put shortly: as §2
Turning to `COC(=O)c1cc(Oc2ncnc3cc[nH]c23)cc(C(=O)OC)c1` [Compound 36, dimethyl 5-((5H-pyrrolo[3,2-d]pyrimidin-4-yl)oxy)isophthalate], the EC50 is more than 30000 nM.
`COC(=O)c1cc(OC)cc(Oc2ncnc3ccsc23)c1` [Compound 37, methyl 3-methoxy-5-(thieno[3,2-d]pyrimidin-4-yloxy)benzoate] gave an EC50 of more than 30000 nM.

In the next experiment the test system is NCI-H596. The experiment can be described thus: MTT assay of cellular proliferation. The experiment is classed as cell-based. Conditions: Homo sapiens, 50% inhibition of cellular proliferation. In outline:
as §2
`COC(=O)c1cc(Oc2ncnc3cc[nH]c23)cc(C(=O)OC)c1` [Compound 36, dimethyl 5-((5H-pyrrolo[3,2-d]pyrimidin-4-yl)oxy)isophthalate] displayed an EC50 of 1 to 1000 nM.
The molecule `COC(=O)c1cc(OC)cc(Oc2ncnc3ccsc23)c1` [Compound 37, methyl 3-methoxy-5-(thieno[3,2-d]pyrimidin-4-yloxy)benzoate] registered an EC50 of 1 to 1000 nM.

Another experiment has as its system T2 HCC. The experiment can be described thus: MTT assay of cellular proliferation. It is filed as cell-based. Conditions: Mus musculus, 50% inhibition of cellular proliferation. Put shortly: as §2
For `COC(=O)c1cc(Oc2ncnc3cc[nH]c23)cc(C(=O)OC)c1` [Compound 36, dimethyl 5-((5H-pyrrolo[3,2-d]pyrimidin-4-yl)oxy)isophthalate], the EC50 lay in the range of 1 to 1000 nM.
On to `COC(=O)c1cc(OC)cc(Oc2ncnc3ccsc23)c1` [Compound 37, methyl 3-methoxy-5-(thieno[3,2-d]pyrimidin-4-yloxy)benzoate], for which the EC50 was in the range of 1 to 1000 nM.

The next experiment deals with T98G. The experiment can be described thus: MTT assay of cellular proliferation. The experiment is classed as cell-based. Conditions: Homo sapiens, 50% inhibition of cellular proliferation. In outline: as §2
With `COC(=O)c1cc(Oc2ncnc3cc[nH]c23)cc(C(=O)OC)c1` [Compound 36, dimethyl 5-((5H-pyrrolo[3,2-d]pyrimidin-4-yl)oxy)isophthalate], the EC50 lay in the range of 1 to 1000 nM.
With `COC(=O)c1cc(OC)cc(Oc2ncnc3ccsc23)c1` [Compound 37, methyl 3-methoxy-5-(thieno[3,2-d]pyrimidin-4-yloxy)benzoate], the EC50 was more than 30000 nM.
